Results as given in US20230134714A1, “COMPOSITIONS COMPRISING BACTERIAL STRAINS” (4D PHARMA RESEARCH LIMITED, priority 2018, published 2023).
Where a name gives a salt, the structure may show the parent alone.

What was measured:
[1] = system: graft versus host disease (GVHD) induced in Balb/C mice; assay: GVHD model (TBI plus allogeneic cell transfer); type: in vivo
Description: All animals were weighed and randomized by weight into treatment groups prior to study start. Prior to GVHD induction on Days −1 and 0, all animals were pre-treated (PO) with PBS (Groups 1-4), NCIMB 43171 (Group 5), or Butyrate salt control (Group 6) daily starting on Day −14. Butyrate was used as a positive control as butyrate deficit has been identified in the gut of GVHD patients.
GVHD was induced in mice using a single acute dose of 8 Gy of total body irradiation (TBI) on Day −1. On Day 0, these recipient mice were given an intravenous injection of a combination of T cell depleted bone marrow cells and splenic cells from donor C57Bl/6 mice in PBS. Bone marrow cells were isolated using standard flushing practices, and were T cell depleted using the cell surface T cell antigen CD3, with a CD3-biotin kit (Miltenyi Biotec catalog 130-094-973). Splenocytes were isolated using Miltenyi GentleMACS Dissociators. Animals in Group 1 served as naïve controls and received neither TBI nor cell transfer. […] Animals in Group 3 served as syngeneic adoptive transfer controls; these animals received 8 Gy of TBI on Day −1, and an intravenous injection of a combination of T cell depleted bone marrow cells and splenic cells from donor Balb/C mice in sterile PBS.
Daily test article dosing continued for the duration of the study (Days −14 to 30). Animal survival was recorded daily, as an indication of GVHD severity. Animals were also weighed, observed, and given a clinical GVHD score daily for the duration of the study following GVHD induction. The GVHD score was assessed by a standard scoring system based on five criteria (Table 21): percentage of weight change, posture (hunching), activity, fur texture, and skin integrity (maximum score=10).
On Day 29, all surviving animals underwent endoscopy to monitor colonic inflammation.
On Day 30, blood was collected by RO bleed; blood (approximately 150-300 μL) was collected into two tubes—approximately two third of the blood was collected into K2EDTA tubes, and the remaining one third was collected into lithium-heparin tubes. Both samples were centrifuged and processed for plasma, and plasma tubes were clearly labeled to indicate the anti-coagulant used. For the K2EDTA sample, plasma was aliquoted as follows: 25 μL (for use in downstream citrulline assay), and remainder. All plasma was frozen at −80° C. All K2EDTA samples were assessed for citrulline by ELISA upon study completion

HDAC [2] = assay: Global HDAC activity analysis in HT-29 cells; type: cell-based; conditions: for inhibition of total HDAC activity: whole HT-29 cells or cell lysate not specified
Procedure: Whole cells and cell free supernatants of stationary phase 43042 cultures were isolated by centrifugation and filtering in a 0.22 uM filter. HT-29 cells were used 3 days' post confluence and stepped down in 1 mL DTS 24 hours prior to commencement of the experiment. The HT-29 cells were challenged with 10% cell free supernatant diluted in DTS and this was left to incubate for 48 hours. […] proteins were then extracted using the Sigma Aldrich […] extraction kit and samples were snap frozen prior to HDAC activity measurement. HDAC activity kit was assessed fluorometrically using the Sigma Aldrich (UK) kit.
(§1) To investigate which metabolites were responsible for the strain-induced HDAC inhibition, different concentrations of hexanoic acid, valeric acid and sodium butyrate were measured for their HDAC inhibition on whole HT-29 cells and on HT-29 cell lysate.

HDAC [3] = assay: HDAC inhibition on HT-29 cell lysate; type: biochemical; conditions: different concentrations
Procedure: as §1

[4] = compared with Group 4 (PBS-TBI+allogeneic transfer)

**Q.** Which “mean body weight over the course of the study” value ([1]; compared to Group 1 (PBS-naive)) does the source give for CCCC(=O)O [Butyrate salt control] here?
**A.** significantly decreased

**Q.** And the “mean body weight over the course of the study” value ([1]; compared to Group 3 (PBS-TBI+syngeneic transfer))?
**A.** significantly decreased

**Q.** And the “mean body weight over the course of the study” value [1, 4]?
**A.** No significant differences

**Q.** What about the “mean colitis severity scores” value ([1]; endoscopy Day 29, compared to naive mice (Group 1)) of the same compound?
**A.** increased

**Q.** For CCCCCC(=O)O [hexanoic acid], which “inhibition of total HDAC activity” value (HDAC [2]) is on record?
**A.** did show significant inhibitory activity

**Q.** With CCCCC(=O)O [Valeric acid, valeric acid] as the compound, how does the “inhibition of total HDAC activity” value (HDAC [2]) read?
**A.** inhibited total HDAC activity

**Q.** Which “inhibition of HDAC activity on whole HT-29 cells” value (HDAC [2]; different concentrations, whole cells) does the source give for CCCC(=O)[O-].[Na+] [sodium butyrate, Sodium butyrate] here?
**A.** significant (P<0.05) inhibition

**Q.** What about the “inhibition of HDAC activity on HT-29 cell lysate” value (HDAC [3]) of the same compound?
**A.** significant (P<0.05) inhibition

**Q.** Which “mean GVHD scores” value ([1]; compared to Group 3) does the source give for C=CC[C@@H]1/C=C(\C)C[C@H](C)C[C@H](OC)[C@H]2O[C@@](O)(C(=O)C(=O)N3CCCC[C@H]3C(=O)O[C@H](/C(C)=C/[C@@H]3CC[C@@H](O)[C@H](OC)C3)[C@H](C)[C@@H](O)CC1=O)[C@H](C)C[C@@H]2OC [tacrolimus] here?
**A.** trend was also observed

**Q.** What about the “mean body weight over the course of the study” value [1, 4] of the same compound?
**A.** same trend was observed
